# Laboratory results reported in patent publication US11319322B2, “Substituted aryl ether compound, preparation method thereof, pharmaceutical composition and use thereof” (Xiamen University, priority 2017, dated 2022).
# Key:
# CCDC6-RET-BaF3 = target: T1, CCDC6-RET-BaF3 (Homo sapiens, UniProt P07949); test: Growth inhibition of CCDC6-RET-BaF3 cells stably transfected with kinase (MTS); assay type: cell-based; details: 48 h, read-out: CCDC6-RET (IC50/nM)
# T1 construct: fused on or other part: Q16204 (Coiled-coil domain-containing protein 6)
# Experimental: (§1) Growth inhibitory activity of compounds on cell lines stably transfected with kinase
# (§2) The activity of compounds against kinase RET is evaluated by their effect of inhibiting growth of cell lines stably transfected with kinase CCDC6-RET-BaF3, KIF5B-RET-BaF3, and wild-type BaF3 (Proc. Natl. Acad. Sci. USA., 2006, 103, 3153-8.). The growth of the cell lines stably transfected with kinase CCDC6-RET-BaF3, KIF5B-RET-BaF3 depends on their kinase activity. If a compound can inhibit the activity of the kinase RET per se or the activity of the RET signaling pathway, the compound can inhibit the growth of BaF3 cells stably transfected with kinase. […] Therefore, a larger ratio between IC50 of a compound to wild-type BaF3 and IC50 of the compound to the cell lines stably transfected with kinase CCDC6-RET-BaF3, KIF5B-RET-BaF3 indicates better targeting.
# (§3) The specific test method is given as follows:
# (§4) 1) Medium: DMEM (Dulbecco's modified eagle medium) or RPMI 1640 (containing 10% fetal bovine serum, 100 μg/mL ampicillin, 100 μg/mL streptomycin).
# (§5) 2) Reagents: MTS reaction solution (containing 2 mg/mL of MTS [3-(4,5-dimethylthiazol-2-yl)-5-(3-carboxymethoxyphenyl)-2-(4-sulfophenyl)-2H-tetrazolium, inner Salt]; 100 μg/mL PES (phenazine […])).
# (§6) 3) Compound test: cells stably transfected with kinase (CCDC6-RET-BaF3, KIF5B-RET-BaF3) or wild-type BaF3 cells (2×10^4 cells/well) were incubated into a 96-well culture plate, the volume of cell culture fluid was 90 μL, and then 10 μL of the compound at each gradient concentration was added (the highest concentration was 10 μM, which was diluted stepwise by ⅓, and 8 concentration points were set in total; the system contained 0.1% DMSO (dimethyl sulfoxide)). The cell plate with uniformly mixed compound was cultured in a cell culture incubator (37° C.; 5% CO2) for 48 h, then 20 μL of MTS reaction solution was added, uniformly mixed and incubated in the cell culture incubator (37° C.; 5% CO2) for 1-4 hr, OD values at 490 nm were measured by a microplate reader (VARIOSKAN FLASH, Thermo). Three parallels were set in each group of experiments, with 0.1% (a final concentration) DMSO as a negative control, and a medium without cells or compounds as a blank control. The cell growth inhibition rate was calculated by the following formula: Cell growth inhibition rate %=1−(ODexperimental group−ODblank group)/(ODnegative group−ODblank group)×100%
# (§7) 4) IC50 calculation: The semi-inhibitory concentration of the compound acting on cell growth was calculated using GradPad Prism 5 software according to the measured cell growth inhibition rate.
# KIF5B-RET-BaF3 = target: T2, KIF5B-RET-BaF3 (Homo sapiens, UniProt P07949); test: Growth inhibition of KIF5B-RET-BaF3 cells stably transfected with kinase (MTS); assay type: cell-based; details: 48 h, read-out: KIF5B-RET (IC50/nM)
# T2 construct: fused on or other part: P33176 (Kinesin-1 heavy chain)
# Experimental: as §1, §2, §3, §4, §5, §6, §7
# T1 sequence (P07949 whole entry, change not shown, the tested form may be a part): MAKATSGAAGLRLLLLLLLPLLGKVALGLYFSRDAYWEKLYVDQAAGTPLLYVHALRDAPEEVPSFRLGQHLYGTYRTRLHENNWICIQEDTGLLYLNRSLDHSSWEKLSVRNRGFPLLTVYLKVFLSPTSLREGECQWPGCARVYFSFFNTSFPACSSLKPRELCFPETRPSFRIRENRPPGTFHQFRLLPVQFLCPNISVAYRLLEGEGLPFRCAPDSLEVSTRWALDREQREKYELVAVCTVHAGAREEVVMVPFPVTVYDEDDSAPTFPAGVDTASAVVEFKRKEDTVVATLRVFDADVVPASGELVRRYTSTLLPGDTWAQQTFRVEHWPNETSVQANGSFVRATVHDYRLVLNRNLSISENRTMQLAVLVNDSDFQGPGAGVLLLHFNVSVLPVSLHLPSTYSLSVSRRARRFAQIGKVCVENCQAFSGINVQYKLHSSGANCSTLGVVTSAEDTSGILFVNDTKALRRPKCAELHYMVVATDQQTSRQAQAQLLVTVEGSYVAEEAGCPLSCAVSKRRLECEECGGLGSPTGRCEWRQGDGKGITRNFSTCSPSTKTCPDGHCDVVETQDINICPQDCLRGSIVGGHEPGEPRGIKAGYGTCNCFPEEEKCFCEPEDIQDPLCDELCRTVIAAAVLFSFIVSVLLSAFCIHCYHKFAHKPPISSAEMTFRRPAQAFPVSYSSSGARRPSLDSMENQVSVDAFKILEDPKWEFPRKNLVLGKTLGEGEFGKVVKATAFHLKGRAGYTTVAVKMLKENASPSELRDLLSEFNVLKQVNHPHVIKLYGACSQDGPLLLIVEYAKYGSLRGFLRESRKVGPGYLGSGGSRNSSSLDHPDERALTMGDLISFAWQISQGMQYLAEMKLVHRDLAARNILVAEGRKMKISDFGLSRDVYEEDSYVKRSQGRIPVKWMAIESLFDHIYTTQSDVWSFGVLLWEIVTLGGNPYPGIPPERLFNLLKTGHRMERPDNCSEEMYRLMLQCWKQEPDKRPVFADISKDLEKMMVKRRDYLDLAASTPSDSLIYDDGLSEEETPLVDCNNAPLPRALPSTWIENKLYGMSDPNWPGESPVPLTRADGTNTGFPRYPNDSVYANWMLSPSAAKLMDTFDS
# T2 sequence (P07949 whole entry, change not shown, the tested form may be a part): as above
GI50 (CCDC6-RET-BaF3) [nM],GI50 (KIF5B-RET-BaF3) [nM],SMILES
4850,8120,Cc1ccc(Oc2nc(-c3ccncc3)nc3c2ncn3C)cc1C(=O)Nc1cccc(C(F)(F)F)c1 [I-f-2]
4930,2290,CC(C)n1cnc2c(Oc3cccc(NC(=O)c4ccc(CN5CCN(C)CC5)c(C(F)(F)F)c4)c3)nc(-c3ccncc3)nc21 [I-h-1]
0.741,2.74,Cc1ccc(Oc2nc(-c3ccncc3)nc3c2ncn3C)cc1NC(=O)c1ccc(CN2CCN(C)CC2)c(C(F)(F)F)c1 [I-j-1]
710,1300,Cc1ccc(C(=O)Nc2ccc(CN3CCN(C)CC3)c(C(F)(F)F)c2)cc1Oc1nc(-c2cccnc2)nc2c1ncn2C [I-m-2]
447,1050,Cc1ccc(C(=O)Nc2ccc(CN3CCN(C)CC3)c(C(F)(F)F)c2)cc1Oc1nc(-c2ccncc2)nc2c1ncn2C [I-m-3]
2700,2370,Cc1ccc(Oc2nc(-c3ccccc3)nc3c2ncn3C)cc1C(=O)Nc1ccc(CN2CCN(C)CC2)c(C(F)(F)F)c1 [I-n-4]
1540,1510,Cc1ccc(Oc2nc(-c3cccc(Cl)c3)nc3c2ncn3C)cc1C(=O)Nc1ccc(CN2CCN(C)CC2)c(C(F)(F)F)c1 [I-n-5]
1780,1380,Cc1ccc(Oc2nc(-c3ccc(Cl)cc3)nc3c2ncn3C)cc1C(=O)Nc1ccc(CN2CCN(C)CC2)c(C(F)(F)F)c1 [I-n-6]
1560,1450,Cc1ccc(Oc2nc(-c3cccc(O)c3)nc3c2ncn3C)cc1C(=O)Nc1ccc(CN2CCN(C)CC2)c(C(F)(F)F)c1 [I-n-7]
1210,1330,Cc1ccc(Oc2nc(-c3ccc(O)cc3)nc3c2ncn3C)cc1C(=O)Nc1ccc(CN2CCN(C)CC2)c(C(F)(F)F)c1 [I-n-8]
1550,1480,Cc1ccc(Oc2nc(-c3cccc(N)c3)nc3c2ncn3C)cc1C(=O)Nc1ccc(CN2CCN(C)CC2)c(C(F)(F)F)c1 [I-n-9]
1400,1400,Cc1ccc(Oc2nc(-c3ccc(N)cc3)nc3c2ncn3C)cc1C(=O)Nc1ccc(CN2CCN(C)CC2)c(C(F)(F)F)c1 [I-n-10]
1200,1960,Cc1ccc(Oc2nc(-c3ccoc3)nc3c2ncn3C)cc1C(=O)Nc1ccc(CN2CCN(C)CC2)c(C(F)(F)F)c1 [I-n-11]
2030,1860,Cc1ccc(Oc2nc(-c3ccsc3)nc3c2ncn3C)cc1C(=O)Nc1ccc(CN2CCN(C)CC2)c(C(F)(F)F)c1 [I-n-12]
3010,4850,Cc1ccc(Oc2ncnc3c2ncn3C)cc1C(=O)Nc1ccc(CN2CCN(C)CC2)c(C(F)(F)F)c1 [I-n-13]
163,47,Cc1ccc(Oc2nc(-c3ccncc3)nc3c2ncn3C(C)C)cc1C(=O)Nc1ccc(CN2CCN(C)CC2)c(C(F)(F)F)c1 [I-n-14]
1470,1390,CN1CCN(Cc2ccc(NC(=O)c3cc(Oc4nc(-c5cccnc5)nc5c4ncn5C)ccc3Cl)cc2C(F)(F)F)CC1 [I-o-1]
20.6,3.15,CN1CCN(Cc2ccc(NC(=O)c3cc(Oc4nc(-c5ccncc5)nc5c4ncn5C)ccc3Cl)cc2C(F)(F)F)CC1 [I-o-2]
1380,1380,CN1CCN(Cc2ccc(NC(=O)c3cc(Oc4nc(-c5ccccc5)nc5c4ncn5C)ccc3Cl)cc2C(F)(F)F)CC1 [I-o-3]
1400,1410,CN1CCN(Cc2ccc(NC(=O)c3cc(Oc4nc(-c5cccc(Cl)c5)nc5c4ncn5C)ccc3Cl)cc2C(F)(F)F)CC1 [I-o-4]
1320,1390,CN1CCN(Cc2ccc(NC(=O)c3cc(Oc4nc(-c5ccc(Cl)cc5)nc5c4ncn5C)ccc3Cl)cc2C(F)(F)F)CC1 [I-o-5]
1290,1360,CN1CCN(Cc2ccc(NC(=O)c3cc(Oc4nc(-c5cccc(O)c5)nc5c4ncn5C)ccc3Cl)cc2C(F)(F)F)CC1 [I-o-6]
903,1210,CN1CCN(Cc2ccc(NC(=O)c3cc(Oc4nc(-c5ccc(O)cc5)nc5c4ncn5C)ccc3Cl)cc2C(F)(F)F)CC1 [I-o-7]
1590,1490,CN1CCN(Cc2ccc(NC(=O)c3cc(Oc4nc(-c5cccc(N)c5)nc5c4ncn5C)ccc3Cl)cc2C(F)(F)F)CC1 [I-o-8]

GI50 (CCDC6-RET-BaF3) [nM],GI50 (KIF5B-RET-BaF3) [nM],SMILES
1390,1500,CN1CCN(Cc2ccc(NC(=O)c3cc(Oc4nc(-c5ccc(N)cc5)nc5c4ncn5C)ccc3Cl)cc2C(F)(F)F)CC1 [I-o-9]
1370,1910,CN1CCN(Cc2ccc(NC(=O)c3cc(Oc4nc(-c5ccoc5)nc5c4ncn5C)ccc3Cl)cc2C(F)(F)F)CC1 [I-o-10]
1680,1560,CN1CCN(Cc2ccc(NC(=O)c3cc(Oc4nc(-c5ccsc5)nc5c4ncn5C)ccc3Cl)cc2C(F)(F)F)CC1 [I-o-11]
55.2,154,CC(C)n1cnc2c(Oc3ccc(Cl)c(C(=O)Nc4ccc(CN5CCN(C)CC5)c(C(F)(F)F)c4)c3)nc(-c3ccncc3)nc21 [I-o-12]
1970,2240,Cc1ccc(C(=O)Nc2cccc(C(F)(F)F)c2)cc1Oc1nc(-c2cccnc2)nc2c1cnn2C [II-e-1]
1110,953,CN1CCN(Cc2ccc(C(=O)Nc3cccc(Oc4nc(-c5cccnc5)nc5c4cnn5C)c3)cc2C(F)(F)F)CC1 [II-h-1]
140,106,CN1CCN(Cc2ccc(C(=O)Nc3cccc(Oc4nc(-c5ccncc5)nc5c4cnn5C)c3)cc2C(F)(F)F)CC1 [II-h-2]
477,411,Cc1ccc(NC(=O)c2ccc(CN3CCN(C)CC3)c(C(F)(F)F)c2)cc1Oc1nc(-c2cccnc2)nc2c1cnn2C [II-i-1]
617,469,Cc1ccc(NC(=O)c2ccc(CN3CCN(C)CC3)c(C(F)(F)F)c2)cc1Oc1nc(-c2ccncc2)nc2c1cnn2C [II-i-2]
881,1040,Cc1ccc(NC(=O)c2ccc(CN3CCN(C)CC3)c(C(F)(F)F)c2)cc1Oc1ncnc2c1cnn2C [II-i-3]
4170,4420,Cc1ccc(Oc2nc(-c3cccnc3)nc3c2cnn3C)cc1NC(=O)c1ccc(CN2CCN(C)CC2)c(C(F)(F)F)c1 [II-j-1]
13.1,–,Cc1ccc(Oc2nc(-c3ccncc3)nc3c2cnn3C)cc1NC(=O)c1ccc(CN2CCN(C)CC2)c(C(F)(F)F)c1 [II-j-2]
1420,3210,Cc1ccc(Oc2nc(-c3ccoc3)nc3c2cnn3C)cc1NC(=O)c1ccc(CN2CCN(C)CC2)c(C(F)(F)F)c1 [II-j-3]
2070,2360,Cc1ccc(Oc2nc(-c3ccsc3)nc3c2cnn3C)cc1NC(=O)c1ccc(CN2CCN(C)CC2)c(C(F)(F)F)c1 [II-j-4]
> 10000,–,CCn1ncc2c(Oc3cc(C(=O)Nc4ccc(CN5CCN(C)CC5)c(C(F)(F)F)c4)ccc3C)nc(-c3ccncc3)nc21 [II-m-22]
< 4,–,CC(=O)NC1CCN(c2ccc(NC(=O)c3ccc(C)c(Oc4nc(-c5cccnc5)nc5ccn(C)c45)c3)cc2C(F)(F)F)CC1 [III-v-2]
23800,–,CC(=O)NCC1CCN(c2ccc(NC(=O)c3ccc(C)c(Oc4nc(-c5ccncc5)nc5ccn(C)c45)c3)cc2C(F)(F)F)CC1 [III-v-3]
< 4,–,CCC(=O)NCC1CCN(c2ccc(NC(=O)c3ccc(C)c(Oc4nc(-c5cccnc5)nc5ccn(C)c45)c3)cc2C(F)(F)F)CC1 [III-v-4]
< 4,–,CCC(=O)NCC1CCN(c2ccc(NC(=O)c3ccc(C)c(Oc4nc(-c5cccnc5)nc5ccn(C)c45)c3)cc2C(F)(F)F)CC1 [III-v-5]
< 4,–,CC(=O)NCC1CCN(c2ccc(NC(=O)c3ccc(C)c(Oc4nc(-c5cccnc5)nc5ccn(C)c45)c3)cc2C(F)(F)F)CC1 [III-v-6]
148000,–,CCC(=O)NC1CCN(c2ccc(NC(=O)c3ccc(C)c(Oc4nc(-c5cccnc5)nc5ccn(C)c45)c3)cc2C(F)(F)F)CC1 [III-v-7]
< 4,–,CCS(=O)(=O)NC1CCN(c2ccc(NC(=O)c3ccc(C)c(Oc4nc(-c5cccnc5)nc5ccn(C)c45)c3)cc2C(F)(F)F)CC1 [III-v-10]
18300,–,CCC(=O)NCC1CCN(c2ccc(NC(=O)c3ccc(C)c(Oc4nc(-c5ccncc5)nc5cc[nH]c45)c3)cc2C(F)(F)F)CC1 [III-v-13]
